Results: US12089542B2, “Subsurface drip irrigation (SDI) lines enhanced with essential oils” (Metzerplas Cooperative Agricultural Organization Ltd., priority 2020, dated 2024)

How the values were obtained:
[1] = tested on: mash bean seeds; experiment: Combination of active ingredients: mash bean root development in open jars with ARC2 films; format: in vivo; conditions: 7% in ARC2 film
Procedure: In order to evaluate the efficacy of Thymol relative to another EO, and to see if combination could result in synergistic activity, an additional experiment was conducted using ARC2 polymer (Cloisite 15A 10 wt % nanoclay) with mash bean seeds in open jars. Cotton wool was placed in the jar as a substrate in the center of which the seeds were sown. Three types of EOs were incorporated into the ARC2 polymer films (7% Thymol, 7% pelargonic acid, and 3.5% Thymol/3.5% pelargonic acid) with a dimension of 1 cm width, 3 cm length, and 3 mm thickness were tested and compared to a reference sample (without EO). Each film was placed adjacent to the jar wall. Seeds were watered once a day for 14 weeks.

[2] = tested on: cucumber seeds; experiment: Bioassay of Thymol activity on plant health and development, cucumber; format: in vivo
Procedure: (§1) In order to determine the suitability of Thymol as an anti-root (AR) agent in a variety of agricultural settings, Thymol activity was tested on different seed types.
(§2) The experiment was conducted for two months during the spring with an ambient temperature of ±30° C. Plastic boxes of 30 cm length, 20 cm width, and 15 cm height were filled with German Kalsmann peat, coconut fiber, ventilation materials, and slow-release fertilizers as planting substrate.
(§3) Cucumber, tomato, beetroot, and sweet corn seeds were each sown in two boxes (8 boxes in total); one box of each seed type was used as a negative control and in the other box (experimental) an ARC2-based active film (Cloisite 15A 10 wt % nanoclay; 7% Thymol) was placed adjacent to the box wall to assess Thymol activity [FIG. 12]. The film folded in half, corresponding to the length and width dimensions of the box.
(§4) For each seed type, both boxes were placed outdoors according to the sun intensity the plant requires. Each seed type was given an appropriate amount of water evenly, using a can.

[3] = tested on: tomato seeds; experiment: Bioassay of Thymol activity on plant health and development, tomato; format: in vivo; conditions: ARC2 film (7% Thymol) adjacent to box wall
Procedure: as §1, §2, §3, §4

[4] = tested on: sweet corn seeds; experiment: Bioassay of Thymol activity on plant health and development, sweet corn; format: in vivo; conditions: ARC2 film (7% Thymol) adjacent to box wall
Procedure: as §1, §2, §3, §4

[5] = tested on: Sorghum; experiment: Greenhouse experiment using Sorghum and 5% Thymol, root clogging of SDI drippers; format: in vivo; conditions: for % Clogged drippers / Clogged drippers / Clean drippers: 2.5 months greenhouse; for roots accumulated on top of the pipe in the area of the drippers' holes: FIG. 7; for Clogged drippers / Clean drippers: number of drippers; for Clogged drippers: ARC1 film in pipe or Treflan pipe
Procedure: In order to confirm the results of Example 1 in a more agricultural settind and in a different pant variety, Sorghum seeds were grown in a TROPICO-type greenhouse (TOP Company), at Kibbutz Metzer (Israel) during the summer season, for 2.5 months.
Individual PP (polypropylene) cases were built for seed beds, with the dimensions of 40 cm height, 20 cm width, and 5 meters length. ARC1-based active films were inserted into PE SDI pipes as in Example 1, and activity of thymol as a root inhibitor was compared to that of TREFLAN chemical herbicide (positive control), as well as to herbicide free pipe used as a negative control.
The pipes were placed 15 cm above the bed's bottom, mimicking a buried drip irrigation situation at a realistic ‘field depth’ for the SDI system. Holes were drilled at the bed's edges to allow easy access to the initial and the last pipe and to enable simple irrigation and fertilization control.
The seed beds were filled with ‘Ram 8’-type (Tuff Merom Golan), a professional planting substrate, 80% coarse peat/20% coconut composition.
“Bulldozer”-type sorghum seeds, supplied by CTS Company, were sown. Sorghum is categorized as a classical field-growth plant and characterized by a robust and aggressive root system with secondary growth ability after ‘green’ harvesting without inflorescence.
The sowing process corresponded to field sowing. Eight seeds per meter were sown at 2.5 cm deep, with 12.5 cm sowing intervals.
Irrigation regime was determined differentially, taking into consideration climate data and irrigation type. During the first week from sowing, the irrigation carried out using sprinklers without fertilization. After sprouting and germination, the irrigation was performed through underground drip irrigation only, accompanied by proportional fertilization, “fertilizer-all”-type 17-10-27, with trace elements. The level of fertilizer in irrigation water was about 30 ppm nitrogen. In contrast to example 1, irrigation and fertilization regimes performed were minimal to create ‘starvation’ and cause the roots to aggressively migrate towards the drippers' holes in search of water and fertilizer.

[6] = tested on: beetroot seeds; experiment: Bioassay of Thymol activity on plant health and development, beetroot; format: in vivo; conditions: ARC2 film (7% Thymol) adjacent to box wall
Procedure: as §1, §2, §3, §4

[7] = Quantitative analysis of Thymol concentration remaining in the film (extraction, Gibbs reagent, UV-visible); format: physicochemical
Procedure: The amount of Thymol remaining in the films immediately after processing and at the end of each experiment was determined by UV-visible 1650PC spectrophotometer (Shimadzu), through extraction. The procedure is suitable for different phenolic EOs and is based on Gibbs reagent (2,6-dichlorobenzoquinone 4-chloroimine).
Briefly, different Thymol-active films were cut to small pieces, weighed, and extracted by refluxing with 2-propanol at a ratio of 500 mg film/25 ml propanol, for 2 hours. To 100 ml volumetric flasks containing 10 ml of a standard Buffer solution of Boric Acid+Potassium Chloride, 1 ml of the extraction solution, 4 mL of 2-propanol, and 1 ml of Gibbs reagent solution was added. The solution was allowed to stand for 15 min to enable the reaction to occur fully. The resulting violet water-soluble dye has a maximum absorption at 590 nm wavelength. Thymol concentration retained in the film, as a proportion of the nominal concentration, was calculated from a calibration curve. Two replicates were measured for each standard.

[8] = tested on: root growth; experiment: Cumulative data from examples 1 through 4: Thymol concentration and root growth; format: in vivo; conditions: low concentrations; at higher concentrations anti-root activity
[9] = tested on: helianthus seeds; experiment: Helianthus seeds in planters with 7% Thymol (ARC2 film in pipe); format: in vivo
Procedure: In order to evaluate the effect of increasing the amount of Thymol, an additional experiment was conducted using ARC2 polymer (Cloisite 15A 10 wt % nanoclay; 7% Thymol). The experiment was conducted on helianthus seeds during the summer season, temperature above 30° C., for two months.
Planter dimensions were 110 cm length, 10 cm width, and 15 cm height. The pipes were placed 5 cm from the planter base, where holes were drilled for drainage.
One planter contained negative control pipe, while ARC2-based active film (experimental) was inserted to pipe in experimental planters as in examples 1 and 2.
Potting soil for plant growth was a mixture of German Kalsmann peat, coconut fiber, ventilation materials, and slow-release fertilizers, mixed with Perlite.
Thirty seeds were sown in two columns at 1 cm depth and 7 cm intervals.
Irrigation cycle was set twice daily for three minutes.
As in previous examples, the number of seeds sown relative to the planter size was large and irrigation regime was minimal to increase the root-intrusion tendency.

[10] = tested on: mash bean seeds; experiment: Inhibition of root penetration in subsurface pipes by Thymol-active based film (5%), lab planters; format: in vivo
Description: Holes were drilled at the bottom for water drainage. PE pipe was specially manufactured by METZERPLAS (Israel), with a coating that prevents diffusion of materials through the PE matrix. Pipe diameter 16 mm with a wall thickness of 0.9 mm. A VARDIT 16-type adjusted dripper was selected, with a flow rate of 1.2 liters/hour for each dripper spaced 20 cm apart across the pipes, which were placed 5 cm from the planter base. An ARC1-based active film (Cloisite 15 3% wt and Thymol 5%) was inserted to one pipe [FIG. 2] and its activity was compared with another pipe with no active agent, used as a negative control.
The planting substrate was Perlite mixed with Hydroton, and mash bean seeds were sown after surface-sterilization with 10% […], for 20 min, to avoid possible inhibition caused by toxins from fungi or bacteria. Seeds were then rinsed with an abundance of distilled water 20 g of seeds were sown 7 cm deep in each flowerbox.
A high ratio of seeds:volume was intentionally used to increase the chance of root intrusion.
Irrigation regimen was set at four times a day for ten minutes. The experiment was conducted in a lab, with light supplied 24 hours a day, and room temperature±25° C. After twenty days, the drippers were opened to examine whether the Thymol was able to function as an anti-root (AR) agent and protect the SDI pipe from root intrusion.

[11] = beds opened at end of experiment

## CCCCCCCCC(=O)O [Pelargonic acid]
[1]; after two weeks, FIG. 18
  effect on root growth: inhibitory effect on root growth compared to the reference sample, but the effect was less

## Cc1ccc(C(C)C)c(O)c1 [Thymol]
[2]; ARC2 film (7% Thymol) adjacent to box wall
  germination rate compared with control box: faster
[2]; FIG. 13
  number of germinated seeds compared with control box: greater
[2]; FIG. 13, after 43 days
  seedlings' growth rate compared with control box: continued to be faster
[2]; FIG. 13, control box 17 days
  time until 6 seeds germinated: 11 days
[3]
  germination rate compared with control box: faster
[4]
  germination rate compared with control box: faster
[5]; listed as Thymol 1
  % Clogged drippers: 0%
  Clogged drippers: 0
  Clean drippers: 15
[5]; listed as Thymol 2
  % Clogged drippers: 4.76%
  Clogged drippers: 1
  Clean drippers: 20
[5]; [11]
  roots accumulated on top of the pipe in the area of the drippers' holes: lower than that obtained for the negative control
[5]; in vivo
  effect on roots development / harm to the crop under cultivation: less harmful to the crop under cultivation than Treflan
  efficacy in deterring roots from dripper openings relative to Treflan: roughly as effective as Treflan
[5]
  Clogged drippers: one
[1]; after 3 weeks, FIG. 19
  root inhibitory effect: best root inhibitory effect
[6]
  germination rate compared with control box: faster
[7]; after 2 months in soil, film in pipe, welded outside or at a distance
  amount of Thymol remaining in the film: around 5 % of the amount nominally incorporated in the film prior to processing
[7]; initial concentration at the beginning of the manufacturing process
  Thymol concentration in the film below which inhibitory activity decreases: about 9 % of the initial concentration
[7]; two and a half months (sorghum) vs two months (mash bean)
  Thymol concentration remaining in the film, sorghum experiment versus mash bean experiment: slightly higher
[8]
  concentration at which Thymol can stimulate root growth: < 0.4 wt %
[9]; ARC2 film (Cloisite 15A 10 wt %, 7% Thymol) in pipe
  germination rate compared with negative control planter: faster
[9]; after 55 days, control planter 19
  number of helianthus flowers: 24
[9]; out of five drippers, end of experiment (two months), control three out of five
  drippers penetrated by roots: two
[9]; until plants reached maximum height
  seedling growth rate compared with control planter: remained faster
[10]; drippers opened after twenty days, ARC1 film, Thymol 5%, in pipe
  root penetration of drippers: remained free of roots
[10]; first four days, ARC1-based active film (Cloisite 15 3% wt, Thymol 5%) inserted in pipe
  number of germinated seeds compared with reference planter: greater
[10]; up to two weeks, ARC1 film, Thymol 5%, in pipe
  growth rate of roots and seedlings compared with reference planter: faster

## CCCN(CCC)c1c([N+](=O)[O-])cc(C(F)(F)F)cc1[N+](=O)[O-] [Treflan, trifluralin, reference compound]
[5]
  % Clogged drippers: 0%
  Clean drippers: 20
  Clogged drippers: 0
[5]; beds opened at end of experiment, FIG. 6, compared with negative control
  soil moisture in proximity to drippers: higher degree of moisture
[5]; [11]
  roots accumulated on top of the pipe in the area of the drippers' holes: no root concentration areas are observed
[5]; end of experiment
  root state of drippers: root-clean
[5]; subjective evidence
  effect on roots development / harm to the crop under cultivation: more aggressive and detrimental effect on roots development
